Results: patent publication US10655140B2, “Herbicide-resistant protein, encoding gene and use thereof” (BEIJING DABEINONG BIOTECHNOLOGY CO., LTD., priority 2015, dated 2020)

How the values were obtained:
[1] = tested on: Corn plants containing 24DT22 nucleotide sequence, control nucleotide sequence and wild type corn plants; test: Herbicide-resistance effect test of transgenic corn T1 plants (prop/brace root development); format: in vivo, corn (Zong 31); conditions: 21 days after spraying
Procedure: Herbicide resistance effects tests to 2,4-D dimethyl ammonium salt and agroxone of corn plants containing 24DT22 nucleotide sequence, control nucleotide sequence respectively and wild type corn plants (stages V3-V4) were performed respectively.
Corn plants containing 24DT22 nucleotide sequence, control nucleotide sequence respectively and wild type corn plants were taken and spayed with 2,4-D dimethyl ammonium salt (8960 g ae/ha, 16-folds concentration in field), agroxone (8960 g ae/ha, 16-folds concentration in field) and blank solvent (water) respectively. Prop root development was counted 21 days after spaying. Three strains (S6, S7 and S8) of corn plants transformed with 24DT22 nucleotide sequence, two strains (S9 and S10) of corn plants transformed with control nucleotide sequence and 1 strain of wild type (CK2) corn were selected and 10-15 plants from each stain were tested.

[2] = tested on: Arabidopsis T1 plants transformed with 24DT22 nucleotide sequence, control nucleotide sequence and wild-type Arabidopsis plants; test: Herbicide resistance effect test of transgenic Arabidopsis T1 plants (spraying); format: in vivo, Arabidopsis thaliana; conditions: Arabidopsis genotype 24DT22; for High resistant (number of plants): 560 g ae/ha (1-fold field concentration), growth consistent with blank solvent 7 days after spraying; for Moderate resistant (number of plants): curly rosette leaves 7 days after spraying; for Low resistant (number of plants): incapable of bolting 14 days after spraying
Source text: 24DT22 gene was used to transform Arabidopsis for the first time. At first, T1 transformants were selected from the background of un-transformed seeds, using glufosinate-ammonium selection scheme. About 20000 T1 seeds are screened among which 314 strains of T1 generation positive transformants (PAT gene) were identified, i.e. the transformation efficiency was about 1.6%. Herbicide resistance effect tests to 2,4-D dimethyl ammonium salt and agroxone of Arabidopsis T1 plants transformed with 24DT22 nucleotide sequence, control nucleotide sequence respectively and wild-type Arabidopsis plants were performed after 18 days of planting.
Arabidopsis T1 plants transformed with 24DT22 nucleotide sequence, control nucleotide sequence respectively and wild-type Arabidopsis plants were sprayed with 2,4-D dimethyl ammonium salt (560 g ae/ha, 1-fold concentration in field), agroxone (560 g ae/ha, 1-fold concentration in field) and blank solvent (water). Resistance conditions of the plants were counted 7 days and 14 days after spraying. Plants with growth conditions consistent with blank solvent (water) 7 days after spaying were classified as highly resistant plants; Plants with curly rosette leaves 7 days after spaying were classified as moderately resistant plants; Plants incapable of bolting 14 days after spaying were classified as low-resistant plants and the dead plants 14 days after spaying were classified as non-resistant plants. Because each Arabidopsis T1 plant is an independent transformation event, significant differences of individual T1 responses can be expected under a given dose.

[3] = tested on: Soybean plants containing 24DT22 nucleotide sequence, control nucleotide sequence and wild type soybean plants; test: Herbicide resistance effect test of transgenic soybean T1 plants (spraying, damage degree); format: in vivo, soybean (Zhonghuang 13); conditions: for Average damage % 6HAT: 6 hours after spraying; for Average damage % 2DAT: 2 days after spraying
Procedure: Herbicide resistance effects tests to 2,4-D dimethyl ammonium salt and agroxone of soybean plants containing 24DT22 nucleotide sequence and control nucleotide sequence respectively and wild type soybean plants (stages V3-V4) were performed respectively.
Soybean plants containing 24DT22 nucleotide sequence, control nucleotide sequence and wild type soybean plants were taken and spayed with 2,4-D dimethyl ammonium salt (2240 g ae/ha, four-folds concentration in field), agroxone (2240 g ae/ha, four-folds concentration in field) and blank solvent (water). Take statistics of the damage degree of each plant caused by herbicides according to the curling degree of leaves and the damage degree of growing point six hours ([…]), two days (2DAT), seven days (7DAT) and 14 days (14DAT) after spraying respectively: if leaves are flat like wild-type leaves and the growing point is intact, the damage degree is 0%; if leaves curl up and wilt and the growing point is died, the damage degree is 100%. There are three strains contained a transferred 24DT22 nucleotide sequence (S1, S2 and S3), two strains contained a transferred control sequence (S4 and S5) and one wild-type strain (CK1) in total; select 10-15 plants from each strain for testing.

[4] = corn strain S8 (24DT22), 8960 g ae/ha
[5] = soybean strain S1 (24DT22), 2240 g ae/ha (4-fold field concentration)
[6] = soybean strain S2 (24DT22), 2240 g ae/ha
[7] = soybean strain S3 (24DT22), 2240 g ae/ha

Compound: CNC.O=C(O)COc1ccc(Cl)cc1Cl [2,4-D dimethyl ammonium salt]
- Abnormal development of brace roots (number of plants) ([1]; corn strain CK2 (wild type), 8960 g ae/ha): 15
- Normal development of brace roots (number of plants) [1, 4]: 10
- High resistant (number of plants) [2]: 28
- Moderate resistant (number of plants) ([2]; 560 g ae/ha): 1
- Non-resistant (number of plants) ([2]; 560 g ae/ha, dead 14 days after spraying): 0
- Low resistant (number of plants) ([2]; 560 g ae/ha): 2
- Average damage % 6HAT [3, 5]: 6%
- Average damage % 6HAT [3, 6]: 11%
- Average damage % 6HAT [3, 7]: 3%
- Average damage % 2DAT [3, 7]: 0%

Compound: Cc1cc(Cl)ccc1OCC(=O)O [agroxone]
- Normal development of brace roots (number of plants) ([1]; corn strain S6 (24DT22), 8960 g ae/ha (16-fold field concentration)): 13
- Normal development of brace roots (number of plants) ([1]; corn strain S7 (24DT22), 8960 g ae/ha): 14
- Normal development of brace roots (number of plants) [1, 4]: 13
- Abnormal development of brace roots (number of plants) ([1]; corn strain S10 (control sequence), 8960 g ae/ha): 11
- High resistant (number of plants) [2]: 25
- Moderate resistant (number of plants) ([2]; 560 g ae/ha): 3
- Low resistant (number of plants) ([2]; 560 g ae/ha): 1
- Average damage % 6HAT [3, 5]: 10%
- Average damage % 6HAT [3, 6]: 16%
- Average damage % 2DAT [3, 6]: 11%
- Average damage % 7DAT ([3]; soybean strain S2 (24DT22), 2240 g ae/ha, 7 days after spraying): 6%
- Average damage % 6HAT [3, 7]: 7%
- Average damage % 2DAT [3, 7]: 4%
